Experimental data taken from patent US11214803B2, “Modulators of YAP1 expression” (Ionis Pharmaceuticals, Inc., priority 2019, dated 2022).
Strand notation (5' to 3'): a small letter for the sugar, then the base; units joined by * are phosphorothioate-linked, units joined directly phosphodiester-linked; [ ] holds rarer units or linkages, { } end groups; capitals alone tell only the bases. e = 2'-O-(2-methoxyethyl) (MOE); k = constrained ethyl (cEt); [5mC] = 5-methylcytosine; d = 2'-deoxy (DNA); m = 2'-O-methyl

What was measured:
Assay type in all cases: cell-based
Yap1 mRNA [1] = experiment: Dose-dependent inhibition of human Yap1 in A-431 cells (Example 7, 10,000 cells per well, RTS36584); conditions: free uptake; for Yap1 mRNA, % UTC: A-431 cells 10,000 cells per well, 48 hours
Procedure: Modified oligonucleotides described in the studies above were tested at various doses in A-431 cells. Cultured A-431 cells at a density of 10,000 cells per well were treated using free uptake with modified oligonucleotides diluted to concentrations described in the tables below. After approximately 48 hours, Yap1 mRNA levels were measured as previously described using the Human Yap1 primer-probe set RTS36584. Yap1 mRNA levels were normalized to total RNA content, as measured by RIBOGREEN®. Results are presented in the tables below as percent control of the amount of Yap1 mRNA relative to untreated control cells (% UTC). IC50s were calculated using a linear regression on a log/linear plot of the data in excel.

Yap1 mRNA [2] = experiment: Dose-dependent inhibition of human Yap1 in SNU-449 cells (Example 9, RTS36584); conditions: free uptake; for % UTC (Yap1 mRNA): approximately 48 hours; for IC50: linear regression on a log/linear plot
Outline: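 Read-out was Yap1 mRNA (primer-probe RTS36584) normalised to total RNA by RIBOGREEN, given as % of untreated cells, with IC50 fitted by linear regression of log/linear data. Oligonucleotides were dosed by free uptake to SNU-449 cells, 10,000/well, for ~48 h.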

Yap1 mRNA [3] = experiment: Antisense inhibition of human Yap1 in A-431 cells by cEt gapmers, single dose (Example 3, RTS36584); conditions: Table 28; Yap1 mRNA as percent of untreated control; 3-10-3 cEt gapmers targeting SEQ ID NO.: 1, and 2
Outline: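 Read-out is Yap1 mRNA as percent of untreated control, by quantitative RT-PCR normalized to total RNA (RiboGreen). Cells (A-431) received 2,000 nM of 3-10-3 cEt phosphorothioate gapmer via free uptake for roughly 48 hours.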

Yap1 mRNA [4] = experiment: Dose-dependent inhibition of human Yap1 in A-431 cells (Example 8, 10,000 cells per well, RTS4814); conditions: free uptake, approximately 48 hours, RTS4814; for Yap1 mRNA, % UTC: A-431 cells, 10,000 cells per well; for IC50: A-431 cells, linear regression on log/linear plot
Outline: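 Yap1 mRNA, normalized to RIBOGREEN total RNA and expressed as % untreated control, was read with RTS4814 about 48 h after free-uptake oligonucleotide treatment of A-431 cells at 10,000 cells/well. IC50 derived by linear regression of log/linear data.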

“958507 (kG*kA*kG*d[5mC]*dA*dG*dA*dT*dA*dA*dT*d[5mC]*dG*kA*kG*kA; antisense) [compound 958507]” was tested, and the “Yap1 mRNA, % UTC” value (Yap1 mRNA [1]; Table 59, 15.6 nM) was 93 % UTC, the “Yap1 mRNA, % UTC” value (Yap1 mRNA [1]; Table 59, 62.5 nM) was 69 % UTC and the “Yap1 mRNA, % UTC” value (Yap1 mRNA [1]; Table 59, 4000.00 nM) was 19 % UTC. The IC50 (Yap1 mRNA [1]; Table 59, A-431 cells 10,000 cells per well) was 200 nM.

“1074798 (kG*k[5mC]*kT*dT*dT*dG*dG*dA*dA*dG*dA*dT*d[5mC]*kT*kG*kA) [compound 1074798]” was tested, and the “% UTC (Yap1 mRNA)” value (Yap1 mRNA [2]; 31.3 nM) was 62 % UTC, the “% UTC (Yap1 mRNA)” value (Yap1 mRNA [2]; 125.0 nM) was 38 % UTC and the “% UTC (Yap1 mRNA)” value (Yap1 mRNA [2]; 500.0 nM) was 17 % UTC. The “% UTC (Yap1 mRNA)” value (Yap1 mRNA [2]; 2000.00 nM) was 8 % UTC, the IC50 (Yap1 mRNA [2]) was 100 nM and the “YAP1 (% UTC)” value (Yap1 mRNA [3]) was 4 % UTC. The “Yap1 mRNA, % UTC” value (Yap1 mRNA [4]; 31.3 nM) was 34 % UTC, the “Yap1 mRNA, % UTC” value (Yap1 mRNA [4]; 125.0 nM) was 12 % UTC and the “Yap1 mRNA, % UTC” value (Yap1 mRNA [4]; 500.0 nM) was 5 % UTC. For the same substance, the “Yap1 mRNA, % UTC” value (Yap1 mRNA [4]; 2000.00 nM) was 6 % UTC and the IC50 (Yap1 mRNA [4]) was < 20 nM.

“1074464 (kT*kT*kA*dG*dA*dG*dT*dA*dT*dG*dT*dG*dG*k[5mC]*kA*kA) [compound 1074464]” was tested, and the “% UTC (Yap1 mRNA)” value (Yap1 mRNA [2]; 31.3 nM) was 109 % UTC, the “% UTC (Yap1 mRNA)” value (Yap1 mRNA [2]; 125.0 nM) was 50 % UTC and the “% UTC (Yap1 mRNA)” value (Yap1 mRNA [2]; 500.0 nM) was 19 % UTC. The “% UTC (Yap1 mRNA)” value (Yap1 mRNA [2]; 2000.00 nM) was 6 % UTC, the IC50 (Yap1 mRNA [2]) was 200 nM and the “Yap1 mRNA, % UTC” value (Yap1 mRNA [4]; 31.3 nM) was 25 % UTC. The “Yap1 mRNA, % UTC” value (Yap1 mRNA [4]; 125.0 nM) was 6 % UTC, the “Yap1 mRNA, % UTC” value (Yap1 mRNA [4]; 500.0 nM) was 3 % UTC and the “Yap1 mRNA, % UTC” value (Yap1 mRNA [4]; 2000.00 nM) was 3 % UTC. For the same substance, the IC50 (Yap1 mRNA [4]) was < 20 nM.

With “1074728 (antisense kT*kG*kA*dG*dG*dT*dA*dT*dA*dA*d[5mC]*dT*dG*kG*kG*k[5mC]) [compound 1074728]” the “% UTC (Yap1 mRNA)” value (Yap1 mRNA [2]; 31.3 nM) was 69 % UTC, the “% UTC (Yap1 mRNA)” value (Yap1 mRNA [2]; 125.0 nM) was 45 % UTC and the “% UTC (Yap1 mRNA)” value (Yap1 mRNA [2]; 500.0 nM) was 19 % UTC. The “% UTC (Yap1 mRNA)” value (Yap1 mRNA [2]; 2000.00 nM) was 8 % UTC, the IC50 (Yap1 mRNA [2]) was 100 nM and the “Yap1 mRNA, % UTC” value (Yap1 mRNA [4]; 31.3 nM) was 28 % UTC. The “Yap1 mRNA, % UTC” value (Yap1 mRNA [4]; 125.0 nM) was 7 % UTC, the “Yap1 mRNA, % UTC” value (Yap1 mRNA [4]; 500.0 nM) was 4 % UTC and the “Yap1 mRNA, % UTC” value (Yap1 mRNA [4]; 2000.00 nM) was 4 % UTC. The IC50 (Yap1 mRNA [4]) was < 20 nM.

In the case of “1198788 (kA*eA*kG*dT*dG*dT*dA*dT*dG*dT*d[5mC]*dA*eG*eA*kA*kG) [compound 1198788]”, the “% UTC (Yap1 mRNA)” value (Yap1 mRNA [2]; 31.3 nM) is reported as 64 % UTC, the “% UTC (Yap1 mRNA)” value (Yap1 mRNA [2]; 125.0 nM) is reported as 30 % UTC and the “% UTC (Yap1 mRNA)” value (Yap1 mRNA [2]; 500.0 nM) is reported as 7 % UTC. For the same substance, the “% UTC (Yap1 mRNA)” value (Yap1 mRNA [2]; 2000.00 nM) was 2 % UTC and the IC50 (Yap1 mRNA [2]) was 100 nM.

With “1197179 (kT*kG*kG*dA*dA*dA*dT*dT*dG*dT*d[5mC]*dT*d[5mC]*kA*kT*kG; antisense) [compound 1197179]” the “% UTC (Yap1 mRNA)” value (Yap1 mRNA [2]; 31.3 nM) was 58 % UTC, the “% UTC (Yap1 mRNA)” value (Yap1 mRNA [2]; 125.0 nM) was 38 % UTC and the “% UTC (Yap1 mRNA)” value (Yap1 mRNA [2]; 500.0 nM) was 17 % UTC. The “% UTC (Yap1 mRNA)” value (Yap1 mRNA [2]; 2000.00 nM) was 7 % UTC and the IC50 (Yap1 mRNA [2]) was 100 nM.

“1198524 (kT*kG*dT*dA*dT*dG*dT*d[5mC]*dA*dG*dA*eA*kG*eA*kG*eT; antisense) [compound 1198524]” was tested, and the “% UTC (Yap1 mRNA)” value (Yap1 mRNA [2]; 31.3 nM) was 50 % UTC, the “% UTC (Yap1 mRNA)” value (Yap1 mRNA [2]; 125.0 nM) was 32 % UTC and the “% UTC (Yap1 mRNA)” value (Yap1 mRNA [2]; 500.0 nM) was 9 % UTC. The “% UTC (Yap1 mRNA)” value (Yap1 mRNA [2]; 2000.00 nM) was 3 % UTC and the IC50 (Yap1 mRNA [2]) was < 30 nM.

“1198664 (kG*k[5mC]*dT*dT*dT*dG*dG*dA*dA*dG*dA*dT*k[5mC]*eT*kG*eA; antisense) [compound 1198664]” was tested, and the “% UTC (Yap1 mRNA)” value (Yap1 mRNA [2]; 31.3 nM) was 52 % UTC, the “% UTC (Yap1 mRNA)” value (Yap1 mRNA [2]; 125.0 nM) was 33 % UTC and the “% UTC (Yap1 mRNA)” value (Yap1 mRNA [2]; 500.0 nM) was 14 % UTC. The “% UTC (Yap1 mRNA)” value (Yap1 mRNA [2]; 2000.00 nM) was 5 % UTC and the IC50 (Yap1 mRNA [2]) was < 30 nM.

With “1200806 (kT*kG*kA*dG*dG*mU*dA*dT*dA*dA*d[5mC]*dT*dG*kG*kG*k[5mC]; antisense) [compound 1200806]” the “% UTC (Yap1 mRNA)” value (Yap1 mRNA [2]; 31.3 nM) was 91 % UTC, the “% UTC (Yap1 mRNA)” value (Yap1 mRNA [2]; 125.0 nM) was 54 % UTC and the “% UTC (Yap1 mRNA)” value (Yap1 mRNA [2]; 500.0 nM) was 34 % UTC. For the same substance, the “% UTC (Yap1 mRNA)” value (Yap1 mRNA [2]; 2000.00 nM) was 18 % UTC and the IC50 (Yap1 mRNA [2]) was 200 nM.

“1198959 (kA*kG*dT*dG*dT*dA*dT*dG*dT*d[5mC]*dA*kG*dA*kA*dG*kA; antisense) [compound 1198959]” was tested, and the “% UTC (Yap1 mRNA)” value (Yap1 mRNA [2]; 31.3 nM) was 62 % UTC, the “% UTC (Yap1 mRNA)” value (Yap1 mRNA [2]; 125.0 nM) was 28 % UTC and the “% UTC (Yap1 mRNA)” value (Yap1 mRNA [2]; 500.0 nM) was 8 % UTC. The “% UTC (Yap1 mRNA)” value (Yap1 mRNA [2]; 2000.00 nM) was 2 % UTC and the IC50 (Yap1 mRNA [2]) was 40 nM.

“1198902 (kT*kT*dA*dG*dA*dG*dT*dA*dT*dG*dT*kG*dG*k[5mC]*dA*kA; antisense) [compound 1198902]” was tested, and the “% UTC (Yap1 mRNA)” value (Yap1 mRNA [2]; 31.3 nM) was 74 % UTC, the “% UTC (Yap1 mRNA)” value (Yap1 mRNA [2]; 125.0 nM) was 46 % UTC and the “% UTC (Yap1 mRNA)” value (Yap1 mRNA [2]; 500.0 nM) was 22 % UTC. The “% UTC (Yap1 mRNA)” value (Yap1 mRNA [2]; 2000.00 nM) was 10 % UTC and the IC50 (Yap1 mRNA [2]) was 100 nM.
